pEC50, pIC50, pKi: −log10 of the molar value. Entries after “also recorded” stand apart in the source; their conditions may differ.
Assays:
[1] = tested on: male C57BL/6J mice; assay: AMPH-induced hyperlocomotor activity (open field); type: in vivo; details: 3 mg/kg pre-treatment, 3 mg/kg AMPH; between 35–50 min, vs amphetamine alone
Experimental: Locomotor activity was assessed in AccuScan activity monitors (41X41X30 cm; AccuScan Instruments, Columbus, OH) with photocells spaced at 1.52 cm as described. In these monitors, the photocells create a grid of light beams, and breaks in the light beams (caused by the mouse) are recorded. The Accuscan software then calculates the total distance travelled (amongst other measurements) by analyzing the sequential order of beam breaks in the grid. Horizontal activity was measured as the total distance traveled in centimeters and was recorded in 5-minute bins. PCP-induced hyperlocomotor activity: mice (n = 16) previously acclimated to activity chambers were placed into the chambers for 15 minutes. […] Subsequently, mice were injected with 6.0 mg/kg PCP (i.p.) and returned to the chamber for 90 minutes. Induction of AMPH-induced hyperlocomotor activity followed an identical protocol except locomotor activity was recorded for a total of 75 minutes and 3 mg/kg AMPH was used (i.p.).

[2] = biological target: T1, 5-HT7 (Homo sapiens, UniProt P34969); assay: PDSP receptor functional assay; type: cell-based
T1 construct: expressed in transfected cells

[3] = biological target: α1D (Homo sapiens, UniProt P25100); assay: PDSP radioligand competition binding; details: radioligand [^3H]Prazosin; read-out: In vitro Affinity
[4] = tested on: male C57BL/6J mice; assay: DOI-induced head-twitch response; type: in vivo
[5] = tested on: male NIH Swiss mice; assay: DOI drug discrimination; type: in vivo
[6] = biological target: AmpC β-lactamase (Escherichia coli, UniProt P00811); assay: AmpC β-lactamase assay counterscreen for colloidal aggregation; details: <= 10 μM; data not shown
[7] = tested on: C57BL/6J mice; assay: Prepulse inhibition, PCP-disrupted; type: in vivo
[8] = biological target: 5-HT1D (Homo sapiens, UniProt P28221); assay: PDSP radioligand competition binding; details: radioligand [^3H]5-CT; read-out: In vitro Affinity
[9] = tested on: rats; set-up: method as in PMID 100809; details: dose range 25–100 mg/kg; cited from earlier work
[10] = biological target: T2, 5-HT2C (Homo sapiens, UniProt P28335); assay: PDSP radioligand competition binding; details: radioligand [^3H]Mesulergine; read-out: In Vitro Affinity
T2 construct: expressed in transfected cells
T2 sequence (P28335 33-458): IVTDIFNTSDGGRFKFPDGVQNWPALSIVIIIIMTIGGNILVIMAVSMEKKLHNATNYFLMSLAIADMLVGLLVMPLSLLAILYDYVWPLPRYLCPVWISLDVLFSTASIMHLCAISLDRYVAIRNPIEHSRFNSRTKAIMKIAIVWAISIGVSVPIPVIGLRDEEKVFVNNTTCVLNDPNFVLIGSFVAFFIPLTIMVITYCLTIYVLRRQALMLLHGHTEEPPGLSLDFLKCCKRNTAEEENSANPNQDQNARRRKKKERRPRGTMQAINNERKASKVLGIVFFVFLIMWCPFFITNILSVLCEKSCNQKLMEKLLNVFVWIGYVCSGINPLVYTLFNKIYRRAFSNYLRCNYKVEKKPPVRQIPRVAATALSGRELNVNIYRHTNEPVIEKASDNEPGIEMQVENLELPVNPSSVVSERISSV

[11] = biological target: MOR (Homo sapiens, UniProt P35372); assay: PDSP radioligand competition binding; details: radioligand [^3H]DAMGO; read-out: In vitro Affinity
[12] = tested on: hDAT and hVMAT2; assay: Whole cell 3H-dopamine uptake in HEK-DAT/VMAT2 cells; details: nuciferine pre-treatment
Experimental: Cell culture: HEK293 cells (ATCC) lines stably expressing hDAT or hDAT and hVMAT2 constructs were cultured at 37°C and 5% CO2 in DMEM with 10% FBS.
Whole cell ^3H-dopamine (DA) uptake: Cells were plated into 48-well plates one day before uptake was performed. […] After incubation, 25 μl uptake buffer containing ^3H-DA and DA was added for a final concentration of 20 nM ^3H-DA and 1 μM DA. Cells were incubated at 37°C for 20 minutes or for the time indicated. Nonspecific uptake was determined in the presence of 10 μM nomifensine. Uptake was terminated by aspirating uptake buffer and washing each well twice with 0.5 ml ice-cold uptake buffer. Cells were lysed in 0.1 N NaOH and transferred to vials containing 3 ml scintillation cocktail. Radioactivity was quantitated using a Beckman LS6500 counter. Data were analyzed in Graph Pad Prism 5.0.

[13] = biological target: T2, 5-HT2C; assay: PDSP receptor functional assay; type: cell-based
[14] = tested on: mice; assay: Prepulse inhibition, pharmacological model using amphetamine; type: in vivo; details: data not shown
[15] = biological target: T3, D4 (Homo sapiens, UniProt P21917); assay: PDSP radioligand competition binding; details: radioligand [^3H]N-methyl Spiperone; read-out: In Vitro Affinity
T3 construct: expressed in transfected cells
T3 sequence (P21917 1-419): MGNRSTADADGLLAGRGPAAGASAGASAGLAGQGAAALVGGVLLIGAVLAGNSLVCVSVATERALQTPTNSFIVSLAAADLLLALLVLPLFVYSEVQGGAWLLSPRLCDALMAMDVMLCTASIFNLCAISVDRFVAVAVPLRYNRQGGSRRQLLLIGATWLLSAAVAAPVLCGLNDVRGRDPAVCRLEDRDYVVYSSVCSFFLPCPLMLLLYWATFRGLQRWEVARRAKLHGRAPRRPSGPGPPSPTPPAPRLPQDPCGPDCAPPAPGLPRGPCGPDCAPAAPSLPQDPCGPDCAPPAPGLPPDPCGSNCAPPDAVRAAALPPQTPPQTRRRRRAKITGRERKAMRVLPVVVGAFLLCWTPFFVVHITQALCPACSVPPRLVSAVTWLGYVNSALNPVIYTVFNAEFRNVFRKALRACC

[16] = tested on: male C57BL/6J mice; assay: Catalepsy, inclined screen test; details: for latency to movement: nuciferine 10.0 mg/kg i.p.
[17] = biological target: T4, 5-HT2A (Homo sapiens, UniProt P28223); assay: PDSP radioligand competition binding; details: radioligand [^3H]Ketanserin; read-out: In Vitro Affinity
T4 construct: expressed in transfected cells

[18] = biological target: T5, 5-HT2B (Homo sapiens, UniProt P41595); assay: PDSP receptor functional assay; type: cell-based
T5 construct: expressed in transfected cells

[19] = biological target: T6, hVMAT2 (Homo sapiens, UniProt Q05940); assay: Vesicular 3H-DA uptake in vesicles isolated from HEK cells overexpressing VMAT2; type: biochemical
T6 construct: expressed in transfected cells; pcDNA3.1 construct with zeocin resistance

[20] = biological target: 5-HT5A (Homo sapiens, UniProt P47898); assay: PDSP radioligand competition binding; details: radioligand [^3H]LSD; read-out: In vitro Affinity
5-HT5A, sequence (P47898 whole entry, species assumed): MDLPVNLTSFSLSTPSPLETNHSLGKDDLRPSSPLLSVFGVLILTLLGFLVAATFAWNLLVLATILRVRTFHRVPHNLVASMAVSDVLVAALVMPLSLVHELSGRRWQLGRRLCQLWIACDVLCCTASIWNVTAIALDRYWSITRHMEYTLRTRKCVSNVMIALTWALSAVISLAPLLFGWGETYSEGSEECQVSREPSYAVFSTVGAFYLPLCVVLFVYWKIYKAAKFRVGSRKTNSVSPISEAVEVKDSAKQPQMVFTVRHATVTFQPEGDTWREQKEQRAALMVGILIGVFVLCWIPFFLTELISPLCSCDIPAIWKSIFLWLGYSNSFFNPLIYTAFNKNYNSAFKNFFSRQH

T5 sequence (P41595 whole entry, species assumed): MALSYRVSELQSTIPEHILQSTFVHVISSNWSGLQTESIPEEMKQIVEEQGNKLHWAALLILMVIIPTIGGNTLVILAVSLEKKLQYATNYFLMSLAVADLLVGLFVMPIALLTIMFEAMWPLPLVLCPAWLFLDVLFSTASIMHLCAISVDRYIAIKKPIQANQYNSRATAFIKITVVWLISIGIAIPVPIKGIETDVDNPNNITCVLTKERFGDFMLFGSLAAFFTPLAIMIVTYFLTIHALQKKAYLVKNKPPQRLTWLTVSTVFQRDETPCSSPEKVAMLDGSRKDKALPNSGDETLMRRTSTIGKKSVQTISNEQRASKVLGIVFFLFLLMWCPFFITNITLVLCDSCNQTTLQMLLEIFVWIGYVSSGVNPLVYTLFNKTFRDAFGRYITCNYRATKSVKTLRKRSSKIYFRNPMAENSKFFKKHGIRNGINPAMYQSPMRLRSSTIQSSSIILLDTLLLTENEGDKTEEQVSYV
T1 sequence (P34969 whole entry, species assumed): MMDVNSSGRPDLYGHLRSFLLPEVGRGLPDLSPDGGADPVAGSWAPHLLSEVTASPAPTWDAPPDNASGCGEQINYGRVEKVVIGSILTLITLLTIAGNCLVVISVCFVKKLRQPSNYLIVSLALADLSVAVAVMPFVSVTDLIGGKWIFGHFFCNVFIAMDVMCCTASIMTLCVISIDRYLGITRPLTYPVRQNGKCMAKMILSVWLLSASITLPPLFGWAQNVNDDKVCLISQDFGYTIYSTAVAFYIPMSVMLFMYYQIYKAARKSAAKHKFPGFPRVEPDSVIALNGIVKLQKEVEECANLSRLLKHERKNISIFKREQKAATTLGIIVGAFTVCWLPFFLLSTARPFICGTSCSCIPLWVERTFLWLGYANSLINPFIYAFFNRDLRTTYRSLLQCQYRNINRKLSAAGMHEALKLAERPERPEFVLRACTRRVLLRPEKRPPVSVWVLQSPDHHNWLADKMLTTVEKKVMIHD
T4 sequence (P28223 whole entry, looked up): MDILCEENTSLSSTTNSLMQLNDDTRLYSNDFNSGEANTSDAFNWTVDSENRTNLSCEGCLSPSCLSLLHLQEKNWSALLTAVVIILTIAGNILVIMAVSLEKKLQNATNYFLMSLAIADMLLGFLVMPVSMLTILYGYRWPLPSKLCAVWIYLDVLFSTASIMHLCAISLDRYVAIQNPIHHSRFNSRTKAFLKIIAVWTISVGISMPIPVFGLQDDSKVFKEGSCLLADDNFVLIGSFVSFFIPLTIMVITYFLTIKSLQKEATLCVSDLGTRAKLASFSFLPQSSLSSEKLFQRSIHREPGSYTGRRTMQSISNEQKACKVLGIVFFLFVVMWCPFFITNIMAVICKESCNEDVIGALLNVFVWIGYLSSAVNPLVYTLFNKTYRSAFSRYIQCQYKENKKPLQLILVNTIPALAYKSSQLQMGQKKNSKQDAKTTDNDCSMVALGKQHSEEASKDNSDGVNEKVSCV
AmpC β-lactamase, sequence (P00811 20-377): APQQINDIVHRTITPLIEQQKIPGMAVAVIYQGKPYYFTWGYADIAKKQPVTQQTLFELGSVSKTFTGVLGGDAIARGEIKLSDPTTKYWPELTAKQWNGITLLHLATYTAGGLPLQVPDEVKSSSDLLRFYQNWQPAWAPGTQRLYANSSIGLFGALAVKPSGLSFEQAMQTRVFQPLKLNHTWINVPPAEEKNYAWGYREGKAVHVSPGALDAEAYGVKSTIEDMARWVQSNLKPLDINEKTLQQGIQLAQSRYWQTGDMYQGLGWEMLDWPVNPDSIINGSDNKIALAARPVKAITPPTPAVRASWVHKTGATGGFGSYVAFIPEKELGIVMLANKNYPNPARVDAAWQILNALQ
T6 sequence (Q05940 whole entry): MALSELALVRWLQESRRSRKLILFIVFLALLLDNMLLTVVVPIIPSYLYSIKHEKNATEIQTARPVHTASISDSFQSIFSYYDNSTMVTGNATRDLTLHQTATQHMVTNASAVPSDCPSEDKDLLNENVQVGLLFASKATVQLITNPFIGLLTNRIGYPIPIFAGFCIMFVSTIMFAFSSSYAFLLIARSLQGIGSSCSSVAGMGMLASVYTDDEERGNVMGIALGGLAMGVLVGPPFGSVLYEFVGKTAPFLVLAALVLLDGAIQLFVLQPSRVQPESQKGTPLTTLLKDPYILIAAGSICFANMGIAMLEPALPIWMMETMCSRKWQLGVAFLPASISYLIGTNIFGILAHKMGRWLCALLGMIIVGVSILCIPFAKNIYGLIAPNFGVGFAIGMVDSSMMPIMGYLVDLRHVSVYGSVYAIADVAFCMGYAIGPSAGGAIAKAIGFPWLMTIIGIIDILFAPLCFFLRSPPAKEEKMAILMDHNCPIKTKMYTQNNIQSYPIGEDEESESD
α1D, sequence (P25100 whole entry): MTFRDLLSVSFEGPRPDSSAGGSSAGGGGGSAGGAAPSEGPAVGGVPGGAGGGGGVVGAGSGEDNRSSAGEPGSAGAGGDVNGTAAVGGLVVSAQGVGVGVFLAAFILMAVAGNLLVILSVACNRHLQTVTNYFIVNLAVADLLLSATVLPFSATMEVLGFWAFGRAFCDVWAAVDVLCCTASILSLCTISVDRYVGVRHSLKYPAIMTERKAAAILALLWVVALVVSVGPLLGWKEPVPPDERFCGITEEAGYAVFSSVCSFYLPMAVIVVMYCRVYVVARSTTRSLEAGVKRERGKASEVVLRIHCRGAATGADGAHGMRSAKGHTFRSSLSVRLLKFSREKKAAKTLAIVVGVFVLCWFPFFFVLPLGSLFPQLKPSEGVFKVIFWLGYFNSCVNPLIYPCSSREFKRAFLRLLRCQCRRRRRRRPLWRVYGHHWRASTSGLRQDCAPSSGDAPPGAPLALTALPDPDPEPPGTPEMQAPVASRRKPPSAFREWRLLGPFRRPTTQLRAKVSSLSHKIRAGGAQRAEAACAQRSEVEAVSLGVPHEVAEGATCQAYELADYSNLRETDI
5-HT1D, sequence (P28221 whole entry, species assumed): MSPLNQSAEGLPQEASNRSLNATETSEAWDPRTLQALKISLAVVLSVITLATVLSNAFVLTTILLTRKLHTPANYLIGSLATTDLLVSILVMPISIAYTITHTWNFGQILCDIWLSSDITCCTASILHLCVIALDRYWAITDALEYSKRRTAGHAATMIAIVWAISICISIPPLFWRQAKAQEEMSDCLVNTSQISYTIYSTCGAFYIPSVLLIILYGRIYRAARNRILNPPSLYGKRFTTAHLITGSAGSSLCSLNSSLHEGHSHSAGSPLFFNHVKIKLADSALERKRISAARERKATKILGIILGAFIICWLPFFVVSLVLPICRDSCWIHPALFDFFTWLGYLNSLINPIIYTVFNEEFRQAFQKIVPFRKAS
MOR, sequence (P35372 whole entry): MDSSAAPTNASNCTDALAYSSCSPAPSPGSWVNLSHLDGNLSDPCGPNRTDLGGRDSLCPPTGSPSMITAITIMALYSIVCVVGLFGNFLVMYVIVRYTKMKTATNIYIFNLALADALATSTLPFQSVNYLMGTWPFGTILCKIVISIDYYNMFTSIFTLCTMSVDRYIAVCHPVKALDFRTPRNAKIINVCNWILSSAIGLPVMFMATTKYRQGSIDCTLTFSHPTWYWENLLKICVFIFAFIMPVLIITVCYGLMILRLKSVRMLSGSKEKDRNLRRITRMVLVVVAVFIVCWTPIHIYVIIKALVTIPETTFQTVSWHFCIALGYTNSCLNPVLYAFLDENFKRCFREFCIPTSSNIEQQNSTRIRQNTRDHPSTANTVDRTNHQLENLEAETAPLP

COc1cc2c3c(c1OC)-c1ccccc1C[C@H]3N(C)CC2 [nuciferine]
amphetamine induced hyperlocomotion [1]: significantly higher motor activity
pEC50 [2]: 6.82
Function Type [2]: Inverse agonist
pIC50 [2]: 6.82
pKi [3]: 6.09
DOI-induced head-twitches ([4]; 1 mg/kg i.p., 15 min prior to 1.0 mg/kg DOI): no statistical effect
DOI-induced head-twitches ([4]; 3 mg/kg i.p., 15 min prior to 1.0 mg/kg DOI, at 5, 10, 15 and 20 min): decreased head-twitches; also recorded: statistically significant (p<0.05) reductions in the numbers of head-twitches
DOI-induced head-twitches ([4]; 3 mg/kg i.p., 30 min prior to DOI): statistically significant (p<0.05) reductions in the numbers of head-twitches
DOI-induced head-twitches ([4]; 3 mg/kg i.p., 45 min prior to DOI): failed to show significant alterations in head-twitches
DOI-induced head-twitches ([4]; 3 mg/kg i.p., 60 min prior to DOI): failed to show significant alterations in head-twitches
DOI-induced head-twitches ([4]; 3 mg/kg s.c., 15 min prior to 1.0 mg/kg DOI, at 10, 15 and 20 min): attenuated DOI-induced head-twitches
DOI-induced head-twitches ([4]; 10 mg/kg i.p., 15 min prior to 1.0 mg/kg DOI, at 5, 10, 15 and 20 min): decreased head-twitches
substitution of cumulative DOI doses for the DOI training dose ([5]; in the presence of 1.0 mg/kg nuciferine): partial substitution
substitution of cumulative DOI doses for the DOI training dose ([5]; in the presence of 3.0 mg/kg nuciferine): no cumulative dose of DOI substituted for the training dose
inhibition of AmpC β-lactamase [6]: did not inhibit
PCP-disrupted PPI ([7]; 5 mg/kg i.p. before 6 mg/kg PCP): higher PPI than the PCP-vehicle groups
PCP-disrupted PPI ([7]; 10 mg/kg i.p. before 6 mg/kg PCP): rescued the PCP-disrupted PPI
pKi [8]: 6.29
hyperlocomotor effect of amphetamine [9]: inhibits the hyperlocomotor effect of amphetamine
pKi [10]: 7.22
pKi [11]: 5.02
effect on dopamine uptake in HEK-DAT/VMAT2 cells [12]: no effect
Function Type [13]: Antagonist
pIC50 ([13]; 5-HT2C antagonist): 6.88
pEC50 ([13]; antagonist): 6.88
PPI in the pharmacological model using amphetamine [14]: failed to normalize PPI
pKi [15]: 5.86
catalepsy ([16]; 10.0 mg/kg, any of the time-points examined): did not produce catalepsy
latency to movement ([16]; 30 min post-injection): 2.3 ± 2.3 s
latency to movement ([16]; 60 min post-injection): 4.7 ± 2.6 s
pKi [17]: 6.51
Function Type [18]: Antagonist
pIC50 ([18]; 5-HT2B antagonist): 6.00
pEC50 ([18]; antagonist): 6.00
effect on DA uptake in isolated vesicles [19]: no effect
pKi [20]: 5.95

Source: paper PMC4786259 (PLoS ONE, 2016)
